Reference: PubChem BioAssay (NCI)
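Compound exposure: 48 hours, 5 concentrations, 96-well plates. TGI is the concentration that stops growth completely.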

Legend:
Experiment in all cases: NCI anticancer screen, dose series, 48 h
[1] = tested on: HCT-15 colon
[2] = tested on: KM12 colon
[3] = tested on: MDA-N
[4] = tested on: HCT-116 colon
[5] = tested on: SNB-75 CNS
[6] = tested on: SK-MEL-5 melanoma
[7] = tested on: HOP-92 NSCLC
[8] = tested on: HT29 colon
[9] = tested on: SK-MEL-28 melanoma
[10] = tested on: SW-620 colon
[11] = tested on: NCI-H460 lung
[12] = tested on: HCC-2998 colon
[13] = tested on: RPMI-8226 leukemia
[14] = tested on: TK-10 renal
[15] = tested on: T-47D breast
[16] = tested on: MDA-MB-435
[17] = tested on: OVCAR-3 ovarian
[18] = tested on: NCI-H522 lung

Structure (SMILES)	TGI [1] [µM]	TGI [2] [µM]	TGI [3] [µM]	TGI [4] [µM]	TGI [5] [µM]	TGI [6] [µM]	TGI [7] [µM]	TGI [8] [µM]	TGI [9] [µM]	TGI [10] [µM]	TGI [11] [µM]	TGI [12] [µM]	TGI [13] [µM]	TGI [14] [µM]	TGI [15] [µM]	TGI [16] [µM]	TGI [17] [µM]	TGI [18] [µM]
CCN(CC)CCCC(C)NC(=O)c1cc(-c2nccn2C)nc2ccc(C)cc12 (stereo not given)	> 100	> 100	> 100	> 100	> 100	> 100	> 100	> 100	> 100	> 100	> 100	> 100	> 100	> 100	> 100	> 100	–	–
COc1ccc(C2=NN(C(=O)c3ccccc3)C(O)(c3cc(F)c(Cl)cc3Cl)C2)cc1OC (stereo not given)	> 100	> 100	> 100	> 100	–	> 100	78.9	> 100	> 100	> 100	> 100	> 100	> 100	98.1	> 100	> 100	69.3	> 100
CCOC(=O)C1c2[nH]c3ccccc3c2CCN1C(=O)c1ccco1 (stereo not given)	> 10	> 10	> 10	> 10	> 10	> 10	> 10	> 10	> 10	> 10	–	> 10	> 10	> 10	> 10	> 10	> 10	–
CSC(=NC1CC(n2cc(C)c(=O)[nH]c2=O)OC1CO)NC#N (stereo not given)	> 100	> 100	> 100	> 100	> 100	> 100	> 100	> 100	> 100	> 100	> 100	> 100	–	> 100	> 100	> 100	> 100	> 100
Cc1[nH]c2ncn3ncnc3c2c1Cc1ccccc1	> 100	> 100	> 100	> 100	> 100	> 100	> 100	> 100	> 100	> 100	> 100	> 100	–	> 100	> 100	> 100	> 100	> 100
O=C(Cn1c(C(=O)/C=C/c2ccco2)nc2ccccc21)c1ccc(Cl)cc1	99.4	47.1	50.2	39.9	> 100	97.1	> 100	92.6	> 100	> 100	27.2	33.6	32.9	85.8	> 100	32.7	> 100	–
